Drawing on the supplement of paper PMC12076712, this text covers pIC50 for 6 compounds.

What all share (experiment): pIC50, kinobeads binding competition
One test has as its target T1, BMX (UniProt P51813).
T1 sequence (whole entry): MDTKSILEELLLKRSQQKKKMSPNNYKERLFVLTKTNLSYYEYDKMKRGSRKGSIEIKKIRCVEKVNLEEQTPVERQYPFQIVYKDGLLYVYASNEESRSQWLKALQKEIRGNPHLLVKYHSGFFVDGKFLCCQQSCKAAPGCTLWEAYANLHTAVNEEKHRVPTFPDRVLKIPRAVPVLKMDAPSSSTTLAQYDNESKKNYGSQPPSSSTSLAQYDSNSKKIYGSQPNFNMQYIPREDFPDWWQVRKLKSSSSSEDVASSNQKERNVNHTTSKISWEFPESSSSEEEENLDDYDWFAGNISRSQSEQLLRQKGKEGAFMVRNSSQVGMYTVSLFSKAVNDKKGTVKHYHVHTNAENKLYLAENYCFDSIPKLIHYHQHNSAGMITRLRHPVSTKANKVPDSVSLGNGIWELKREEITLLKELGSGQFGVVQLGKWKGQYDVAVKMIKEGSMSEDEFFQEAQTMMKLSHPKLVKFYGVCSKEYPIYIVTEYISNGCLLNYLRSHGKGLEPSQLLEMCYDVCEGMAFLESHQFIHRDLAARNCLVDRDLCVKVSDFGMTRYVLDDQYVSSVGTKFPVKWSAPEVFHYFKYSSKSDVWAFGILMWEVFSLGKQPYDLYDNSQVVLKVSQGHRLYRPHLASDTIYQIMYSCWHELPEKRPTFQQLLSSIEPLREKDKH
The conditions noted are these: cell material: Lysate mix. A digest of the protocol:
(§1)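 To obtain pIC50, fold changes versus vehicle were fitted to logistic dose-response curves (R drc package) across biological duplicates. Protein binding to Kinobeads was quantified by TMT10 LC-MS/MS of digested bead-bound proteins. Treatments used nine concentrations with a top of 30 μM, applied to live Jurkat cells in 1:4 steps for 60 min at 37 °C before lysis, or to Jurkat lysate or a 1:1:1:1 HEK293/K-562/HepG2/placenta lysate mix in 1:5 steps for 60 min at 4 °C.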

The target of the next test is LIMK1 (UniProt P53667). A digest of the protocol: as §1
The next test concerns the target PIM1 (UniProt P11309). Conditions: cell material: Lysate mix. A digest of the protocol: as §1
The next test concerns the target UniProt P27448. The method in brief:
as §1

For another test, the target named is PRKAA2 (UniProt P54646). Conditions: cell material: Lysate mix. A digest of the protocol:
as §1

The next test has as its target T2, UniProt O15530.
T2 sequence (whole entry): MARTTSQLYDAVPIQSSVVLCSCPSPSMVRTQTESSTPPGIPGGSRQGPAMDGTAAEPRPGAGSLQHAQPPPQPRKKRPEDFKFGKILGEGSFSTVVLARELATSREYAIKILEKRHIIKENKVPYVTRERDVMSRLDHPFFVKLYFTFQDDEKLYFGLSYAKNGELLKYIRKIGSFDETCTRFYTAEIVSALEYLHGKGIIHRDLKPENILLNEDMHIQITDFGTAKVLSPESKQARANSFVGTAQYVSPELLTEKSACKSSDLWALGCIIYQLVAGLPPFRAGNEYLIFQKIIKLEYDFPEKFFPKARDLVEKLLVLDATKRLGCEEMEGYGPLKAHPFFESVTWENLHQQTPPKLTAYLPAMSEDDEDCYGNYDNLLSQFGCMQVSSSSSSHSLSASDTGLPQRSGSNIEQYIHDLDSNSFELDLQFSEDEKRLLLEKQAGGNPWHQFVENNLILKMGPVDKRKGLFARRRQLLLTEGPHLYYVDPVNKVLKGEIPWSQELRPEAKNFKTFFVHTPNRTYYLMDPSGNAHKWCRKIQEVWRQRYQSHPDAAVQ
The method in brief: as §1

Another test concerns the target T3, EPHB6 (UniProt O15197).
T3 sequence (whole entry): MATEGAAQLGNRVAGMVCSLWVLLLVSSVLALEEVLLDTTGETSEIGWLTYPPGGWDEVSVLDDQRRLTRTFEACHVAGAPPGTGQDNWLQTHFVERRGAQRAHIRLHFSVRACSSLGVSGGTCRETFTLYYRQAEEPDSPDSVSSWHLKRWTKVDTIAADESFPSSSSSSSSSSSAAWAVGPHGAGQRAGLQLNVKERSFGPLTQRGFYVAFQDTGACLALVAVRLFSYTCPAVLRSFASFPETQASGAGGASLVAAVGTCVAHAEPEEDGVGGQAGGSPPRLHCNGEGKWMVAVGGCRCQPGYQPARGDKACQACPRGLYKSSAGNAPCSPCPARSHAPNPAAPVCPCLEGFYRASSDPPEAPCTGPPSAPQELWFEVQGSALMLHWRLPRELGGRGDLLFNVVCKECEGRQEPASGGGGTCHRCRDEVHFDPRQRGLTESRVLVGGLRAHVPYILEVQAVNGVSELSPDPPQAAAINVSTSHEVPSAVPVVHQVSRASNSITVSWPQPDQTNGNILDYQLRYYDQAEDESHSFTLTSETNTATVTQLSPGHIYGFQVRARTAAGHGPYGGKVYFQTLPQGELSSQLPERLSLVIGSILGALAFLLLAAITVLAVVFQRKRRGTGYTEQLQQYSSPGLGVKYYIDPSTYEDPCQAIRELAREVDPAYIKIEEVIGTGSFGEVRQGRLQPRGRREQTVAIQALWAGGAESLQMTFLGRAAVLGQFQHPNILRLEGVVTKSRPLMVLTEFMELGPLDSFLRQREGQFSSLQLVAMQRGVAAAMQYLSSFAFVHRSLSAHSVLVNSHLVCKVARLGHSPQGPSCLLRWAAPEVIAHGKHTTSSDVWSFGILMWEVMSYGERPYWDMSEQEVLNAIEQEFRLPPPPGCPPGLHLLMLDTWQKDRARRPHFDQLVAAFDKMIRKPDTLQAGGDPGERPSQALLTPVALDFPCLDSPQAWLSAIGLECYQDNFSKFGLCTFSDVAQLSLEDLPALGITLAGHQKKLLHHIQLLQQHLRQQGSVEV
The method in brief: as §1

The target of a further test is EIF2AK4 (UniProt Q9P2K8). The method in brief: as §1

On to `Cc1cc(Nc2cc(C(=O)NCCNC(=O)OC3CC/C=C/CCC3)nc(N3CCN(Cc4ccc(S(=O)(=O)F)cc4)CC3)n2)n[nH]1` (stereo not drawn), for which the negative logarithm of the IC50 (pIC50) on BMX is less than 4.52; at LIMK1 (cell material: Lysate mix) it was less than 4.52; at PIM1 it was less than 4.52; on UniProt P27448 (cell material: Lysate mix) it was less than 4.52; on PRKAA2, 5.31; on UniProt O15530 (cell material: Lysate mix), less than 4.52. Besides, the pIC50 at EPHB6 (cell material: Lysate mix) and at EIF2AK4 (cell material: Lysate mix) was less than 4.52 each time.
For the compound `C#CCNC(=O)c1cc(Nc2cc(C3CC3)[nH]n2)nc(N2CCN(Cc3ccc(S(=O)(=O)F)cc3)CC2)n1`, the pIC50 was less than 4.52 on BMX; 6.96 on LIMK1 (cell material: Jurkat cells); 5.99 on LIMK1 (cell material: Jurkat lysate); 6.32 at LIMK1 (cell material: Lysate mix); less than 4.52 at PIM1; 5.81 at UniProt P27448 (cell material: Jurkat cells). The pIC50 at UniProt P27448 (cell material: Jurkat lysate) is less than 4.52; at UniProt P27448 (cell material: Lysate mix) it was less than 4.52; on PRKAA2, 7.31; on UniProt O15530 (cell material: Jurkat cells) it was 5.5; at UniProt O15530 (cell material: Jurkat lysate), less than 4.52; at UniProt O15530 (cell material: Lysate mix), less than 4.52. Also, the pIC50 at EPHB6 (cell material: Jurkat cells) was 5.28; on EPHB6 (cell material: Jurkat lysate), less than 4.52; on EPHB6 (cell material: Lysate mix) it was less than 4.52; on EIF2AK4 (cell material: Jurkat cells) it was 6.08; at EIF2AK4 (cell material: Jurkat lysate), 4.63; on EIF2AK4 (cell material: Lysate mix) it was 5.44.
Take `CCNC(=O)c1cc(Nc2cc(C3CC3)[nH]n2)nc(N2CCN(Cc3ccc(S(=O)(=O)F)cc3)CC2)n1`: the pIC50 on BMX is less than 4.52; at LIMK1 (cell material: Lysate mix), 6.06; at PIM1, less than 4.52; on UniProt P27448 (cell material: Lysate mix), less than 4.52; at PRKAA2, 7.04; at UniProt O15530 (cell material: Lysate mix), less than 4.52. Also, the pIC50 at EPHB6 (cell material: Lysate mix) was less than 4.52; on EIF2AK4 (cell material: Lysate mix), 5.35.
`C#CCNC(=O)c1cc(Nc2cc(C)[nH]n2)nc(N2CCN(Cc3ccc(S(=O)(=O)F)cc3)CC2)n1`: the pIC50 at BMX was less than 4.52; at LIMK1 (cell material: Lysate mix), 5.62; at PIM1, less than 4.52; at UniProt P27448 (cell material: Lysate mix), less than 4.52; on PRKAA2 it was 6.53; on UniProt O15530 (cell material: Lysate mix), less than 4.52. Also, the pIC50 on EPHB6 (cell material: Lysate mix) was less than 4.52; at EIF2AK4 (cell material: Lysate mix), 5.15.
As to `O=C(NCCNC(=O)c1cc(Nc2cc(C3CC3)[nH]n2)nc(N2CCN(Cc3ccc(S(=O)(=O)F)cc3)CC2)n1)OC1CC/C=C/CCC1` (stereo not drawn), the negative-log IC50 (pIC50) on BMX was less than 4.52; on LIMK1 (cell material: Jurkat cells), 6.66; on PIM1 it was less than 4.52; on UniProt P27448 (cell material: Jurkat lysate) it was less than 4.52; on UniProt P27448 (cell material: Lysate mix), less than 4.52; at PRKAA2, 5.5. The pIC50 at UniProt O15530 (cell material: Jurkat lysate) is less than 4.52; on UniProt O15530 (cell material: Lysate mix), less than 4.52; at EPHB6 (cell material: Jurkat cells), less than 4.52; at EPHB6 (cell material: Jurkat lysate), less than 4.52; on EIF2AK4 (cell material: Jurkat cells), 5.62; at EIF2AK4 (cell material: Jurkat lysate), less than 4.52. In addition, the pIC50 at EIF2AK4 (cell material: Lysate mix) was less than 4.52.
On to `CCNC(=O)c1cc(Nc2cc(C)[nH]n2)nc(N2CCN(Cc3ccc(S(=O)(=O)F)cc3)CC2)n1`, for which the pIC50 was less than 4.52 on BMX; 5.74 on LIMK1 (cell material: Lysate mix); less than 4.52 at PIM1; less than 4.52 on UniProt P27448 (cell material: Lysate mix); 7.35 on PRKAA2; less than 4.52 on UniProt O15530 (cell material: Lysate mix). Also, the negative logarithm of the IC50 (pIC50) was less than 4.52 on EPHB6 (cell material: Lysate mix) and 4.98 at EIF2AK4 (cell material: Lysate mix).

The pIC50 is the negative decadic logarithm of the IC50, by convention in mol/L.
